Reference: article PMC6013238, “Development of novel NEMO-binding domain mimetics for inhibiting IKK/NF-κB activation” (PLoS Biology, 2018)
Values joined by “and” are separate entries in the source; they are usually repeats but may differ in a detail not shown here. Equal entries are not always repeated. Where two headings read alike, the source gives them in different places. One block for each molecule: values may come before it.

Legend:
[1] = Plasma and tissue concentrations 2 h after a single i.p. injection; assay type: in vivo, mouse; settings: for concentration at 2 h: male, C57BL/6J, mouse, ip, 10 mg/kg
Method: To determine the stability of the NBD mimetics in vivo, their levels were measured in the plasma of mice 2 h post i.p. injection with 10 mg/kg of each compound. The concentration of SR12460 was very high in plasma (>6.5 μg/mL; 20 μM), while levels in brain, muscle, spleen, and liver were lower. SR12343 and SR12454 had lower plasma concentrations, with SR12343 showing a higher level in liver and SR12454 showing higher concentrations in muscle and spleen. The level of SR11481 was undetectable in plasma and tissues (Fig 6A).
Fig 6 Newly identified NBD mimetics suppress LPS-induced acute inflammation in vivo. (A) The bioavailability property of SR12460, SR12343, SR12454, and SR11481. Concentrations of NBD mimetics were determined in plasma, brain, muscle, spleen, and liver 2 h post a single i.p. injection of 10 mg/kg of drugs; n = 3 per group. (B) Shown is the model to induce LPS-mediated acute inflammation and the treatment regimen with NBD mimetics. Mouse image via http://www.clker.com/clipart-mice-blank.html (copyright-free). (C) NBD mimetics suppressed LPS-induced acute inflammation in liver and lung by down-regulating NF-κB target gene expression. Vehicle, SR12343, SR12460, and 8K-NBD peptide were dosed at 10 mg/kg 30 min prior to the LPS treatment. Acute inflammation was induced by i.p. injection of 10 mg/kg LPS. Lung and liver were collected 2–4 h post injection, and mRNA was extracted for qRT-PCR analysis. (D, E) Western blot analysis was performed to probe for the expression of p-IκBα and COX-2 at protein level in liver and lung tissues. (F) Serum levels of IL-6 were determine by ELISA. n = 3–8 each group. *P < 0.05, **P < 0.01. Underlying data can be found in S1 Data. COX-2, cyclooxygenase 2; IL-6, interleukin 6; i.p., intraperitoneal; LPS, lipopolysaccharide; NBD, NEMO-binding domain; n.d., nondetectable; NEMO, NF-κB essential modulator; NF-κB, nuclear factor κB; qRT-PCR, quantitative real-time polymerase chain reaction. TEXT PRINTED IN THE PICTURE: (A) SR11481: Concentration (ng/ml): n.d. (plasma)
The pharmacokinetic profile of the NBD mimetics was determined in male C57BL/6J mice (n = 3). The drugs were formulated in 10:10:80 of DMSO:Tween 80:water and were dosed by i.p. injection at a final dose of 10 mg/kg. Blood, brain, muscle, spleen, and liver were collected 2 h post treatment and were analyzed by mass spectrometry by following a protocol previously described.

[2] = Stability time course in FBS media with or without acetonitrile; assay type: in vitro ADME
Method: To confirm that the NBD mimetics reduce IKK kinase activity, phosphorylation of IκBα by IKK in response to 10 ng/ml of TNF-α was measured by western blot at 0, 5, and 10 min after stimulation. […] To determine whether the mimetics also reduce NF-κB DNA binding activity, electrophoretic mobility shift assay (EMSA) was conducted both in vitro and in vivo. […] The addition of acetonitrile increased the stability of both ZINC compounds, especially ZINC 5 (Fig 3D).
Fig 3 Two identified small molecules reduce NF-κB DNA binding activity in vivo and in vitro. (A) Levels of p-IκBα with or without treatment in response to TNF-α were determined by western blot analysis. HEK293 cells were pretreated with DMSO, ZINC12909780 (100 μM), and ZINC5 (100 μM) for 30 min followed by the stimulation of 10 ng/ml of TNF-α for 0, 5, and 10 min. Cell lysates were prepared for immunoblot against p-IκBα. GAPDH was used as a loading control. (B) EMSA analysis detecting NF-κB DNA binding activity was performed in C2C12 myoblasts. Cells were pretreated with 200 μM of DMSO, ZINC12909780, and ZINC5 in serum-free media for 1 h. TNF-α was then added to a final concentration of 10 ng/ml and incubated for 15 min. Nuclear extract was obtained for EMSA analysis. (C) EMSA analysis assessing NF-κB DNA binding activity in vivo was performed with quadriceps from mdx mice. Single-dose ZINC12909780 and ZINC5 at 10 mg/kg was given by i.p. Quadriceps was harvested at 1 h and 2 h post injection for EMSA analysis. (D) The time-course pharmacokinetics of ZINC5 and ZINC12909780 in FBS media or FBS media containing acetonitrile. Underlying data can be found in S1 Data. EMSA, electrophoretic mobility shift assay; HEK293, human embryonic kidney 293 cells; i.p., intraperitoneal; NF-κB, nuclear factor κB; t1/2, half-life; TNF-α; tumor necrosis factor α.

[3] = 2 h post single i.p. 10 mg/kg, single mice
[4] = plasma, 2 h post single i.p. 10 mg/kg, single mice, read-out: Concentration in plasma
[5] = spleen, 2 h post single i.p. 10 mg/kg, single mice, read-out: Concentration in spleen

SMILES: O=C(CNc1ccc(Cl)cn1)NCCc1cccc(Br)c1 [SR12343]
Concentration in brain [1, 3]: 45.7 ng/mL and 29.2 ng/mL
Concentration in plasma [1, 3]: 14.7 ng/mL and 8.4 ng/mL
Concentration in spleen [1, 3]: 26.6 ng/mL and 25.1 ng/mL
concentration at 2 h ([1]; brain, 2 h post single i.p. 10 mg/kg, single mice, read-out: Concentration in brain): 31.8 ng/mL
concentration at 2 h [1, 4]: 14.3 ng/mL
concentration at 2 h [1, 5]: 24.7 ng/mL

SMILES: O=C(CNCCc1cc(F)cc(F)c1)Nc1ccc(Cl)cn1 [SR12460]
Concentration in liver [1, 3]: 265 ng/mL and 390 ng/mL
Concentration in muscle [1, 3]: 602 ng/mL and 852 ng/mL
Concentration in plasma [1, 3]: 5470 ng/mL and 7970 ng/mL
Concentration in spleen [1, 3]: 905 ng/mL and 1250 ng/mL
concentration at 2 h ([1]; liver, 2 h post single i.p. 10 mg/kg, single mice, read-out: Concentration in liver): 442 ng/mL
concentration at 2 h ([1]; muscle, 2 h post single i.p. 10 mg/kg, single mice, read-out: Concentration in muscle): 846 ng/mL
concentration at 2 h ([1]; plasma, 2 h post i.p. 10 mg/kg, read-out: Concentration in plasma): > 6500 ng/mL and 20 µM
concentration at 2 h [1, 4]: 6520 ng/mL
concentration at 2 h [1, 5]: 930 ng/mL

SMILES: O=C(COC(=O)Cc1ccccc1F)Nc1ccc(Cl)cn1 [ZINC5]
Stability in cell culture media containing FBS [2]: extremely unstable
t1/2 ([2]; FBS-media): 1.5 h
t1/2 ([2]; FBS-media+acetonitrile): 10.8 h
% remaining ([2]; fbs-media+acetonitrile, 15 min): 77.2%
% remaining ([2]; fbs-media+acetonitrile, 30 min): 85.8%
% remaining ([2]; fbs-media+acetonitrile, 60 min): 86.3%
% remaining ([2]; fbs-media+acetonitrile, 240 min): 69.4%
% remaining ([2]; fbs-media, 15 min): 90.8%
% remaining ([2]; fbs-media, 30 min): 79.8%
% remaining ([2]; fbs-media, 60 min): 61.8%
% remaining ([2]; fbs-media, 240 min): 16.4%

Stability in cell culture media containing FBS [2]: relatively more stable
remaining at 0.25 h ([2]; bovine, FBS media containing acetonitrile, fbs-media+acetonitrile, 15 min): 94.8%
remaining at 0.5 h ([2]; bovine, FBS media containing acetonitrile, fbs-media+acetonitrile, 30 min): 103%
remaining at 1 h ([2]; bovine, FBS media containing acetonitrile, fbs-media+acetonitrile, 60 min): 106%
remaining at 4 h ([2]; bovine, FBS media containing acetonitrile, fbs-media+acetonitrile, 240 min): 104%
half-life ([2]; bovine, cell culture media containing FBS, FBS-media): 15 h
remaining at 0.25 h ([2]; bovine, cell culture media containing FBS, fbs-media, 15 min): 101%
remaining at 0.5 h ([2]; bovine, cell culture media containing FBS, fbs-media, 30 min): 105%
remaining at 1 h ([2]; bovine, cell culture media containing FBS, fbs-media, 60 min): 92%
remaining at 4 h ([2]; bovine, cell culture media containing FBS, fbs-media, 240 min): 85%
SMILES: Nc1ncccc1C(=O)OCC(=O)Nc1ccc(Cl)cc1F [ZINC12909780]
